Reference: patent US11467161B2, “Biomarkers of therapeutic responsiveness” (Meso Scale Technologies, LLC., priority 2013, dated 2022)
Read-outs that look alike come from different tables or passages of the source.

Experiments:
[1] = system: A498 xenograft; experiment: Biomarker levels in A498 RCC xenograft tumor extracts (MSD multiplex immunoassay); format: in vivo, mice; conditions: A498 tumor extract, sunitinib (+), mean
Protocol: (§1) A panel of biomarkers was measured in Melanoma and RCC xenograft tissue extracts from mice, described in Table 4. Xenografts were generated using the listed melanoma and RCC cell lines, and tumors harvested and extracted following the indicated treatments. SKMEL5 cells were used with or without transfection to express constitutively active GSK3β. A375 cells were used with or without transfection to express GSK3β specific shRNA under a doxycycline-controlled promoter.
(§2) Multiplex immunoassay kits were used for detection of total and/or phosphorylated biomarkers (supplied by Meso Scale Discovery, a division of Meso Scale Diagnostics, LLC, Rockville, Md.). Levels of each biomarker were determined by calibration of the assays with were either purified calibrator proteins or using control cell lysates from appropriately treated cultured cell lines (e.g., cells subjected to conditions known to induce or reduce levels of a specific biomarker). Calibration curves were derived by testing serial dilutions of the calibrator lysates or purified proteins. Levels of biomarkers in test samples were back-calculated from the calibration curves and were expressed in terms of wt. (or arbitrary Units for phospho-protein markers) of protein per weight of tissue extract (for purified calibrators) or in terms of weight of crude control lysate protein per well (for lysate calibrators). Titrations of tumor extracts were carried out to determine the linearity of the assay response to sample dilution and to select the sample dilution that would be appropriate to use for each assay panel.
(§3) In general, the assay format was as follows, with minor alterations for specific assay panels as indicated in the assay protocols provided with each assay kit (supplied by Meso Scale Discovery, Rockville, Md.): (1) block MSD MULTI-SPOT® plate for 1 hour with appropriate MSD® blocking solution and wash; (2) add 25 μl assay diluent to each well, if specified; (3) add 25 μl calibrator, or sample (diluted as appropriate) to each well; (4) incubate with shaking for 1-3 hours (time as specified) and wash the well; (5) add 25 μl labeled detection antibody solution to each well; (6) incubate with shaking for 1-2 hours (time as specified) and wash the well; (7) add 150 μl MSD read buffer to each well; (8) read plate immediately on MSD SECTOR® Imager 6000 Reader (supplied by Meso Scale Discovery, Rockville, Md.).
(§4) Tumor tissue extracts were assayed at 5-10 μg/well total protein per well. Samples from each set were assayed on the same plate. […] The signals obtained are not normalized to any housekeeping tissue factor, which may serve to improve animal-to-animal reproducibility, but are normalized to total lysate protein.
(§5) Samples that were not treated with drug are designated as (−) and those treated with drug as (+).

[2] = system: 786-0 xenograft; experiment: Biomarker levels in 786-0 RCC xenograft tumor extracts (MSD multiplex immunoassay); format: in vivo, mice
Protocol: as §1, §2, §3, §4, §5

[3] = system: SKMEL5 xenograft; experiment: Biomarker levels in SKMEL5 wt melanoma xenograft tumor extracts (MSD multiplex immunoassay); format: in vivo, mice
Protocol: as §1, §2, §3, §4, §5

[4] = system: A375 (GSKshRNA) xenograft; experiment: Biomarker levels in A375 GSK3β shRNA melanoma xenograft tumor extracts (MSD multiplex immunoassay); format: in vivo, mice
Protocol: as §1, §2, §3, §4, §5

[5] = system: A375 xenograft; experiment: Biomarker levels in A375 control melanoma xenograft tumor extracts (MSD multiplex immunoassay); format: in vivo, mice
Protocol: as §1, §2, §3, §4, §5

[6] = system: A375 cells; conditions: cited from earlier work
[7] = system: A375 (GSKshRNA) xenograft + doxycycline; experiment: Biomarker levels in A375 shRNA + Dox melanoma xenograft tumor extracts (MSD multiplex immunoassay); format: in vivo, mice; conditions: A375 shRNA + Dox tumor extract, sorafenib (+), mean
Protocol: as §1, §2, §3, §4, §5

[8] = system: SKMEL5 (active GSK3beta) xenograft; experiment: Biomarker levels in SKMEL5 GSK3β+ (active GSK3beta) melanoma xenograft tumor extracts (MSD multiplex immunoassay); format: in vivo, mice
Protocol: as §1, §2, §3, §4, §5

[9] = 786-0 tumor extract, sunitinib (+), mean
[10] = SKMEL5 wt tumor extract, sorafenib (+), mean
[11] = A375 GSK3β shRNA tumor extract, sorafenib (+), mean
[12] = A375 control tumor extract, sorafenib (+), mean
[13] = wild type A375 tumors, sorafenib
[14] = SKMEL5 GSK3β+ tumor extract, sorafenib (+), mean

SMILES: CCN(CC)CCNC(=O)c1c(C)[nH]c(/C=C2\C(=O)Nc3ccc(F)cc32)c1C [sunitinib]
- Akt [1]: 6.3 pg/ug pr
- E-Cadherin [1]: 0.0 pg/ug pr
- GSK3β [1]: 24 pg/ug pr
- Rb [1]: 0.00 pg/ug pr
- SRFP-1 [1]: 0.15 pg/ug pr
- VEGF [1]: 5.8 pg/ug pr
- Wnt3A [1]: 8.8 pg/ug pr
- c-Met [1]: 1.47 ng/ug pr
- dephospho β-catenin [1]: 3.4 Units/ug pr
- phospho-GSK3β [1]: 14.2 Units/ug pr
- phospho-Rb [1]: 0.08 Units/ug pr
- phospho-cMet [1]: 73.6 pg lys cal/ug pr
- phosphor-Akt [1]: 59.1 Units/ug pr
- β-catenin [1]: 34 pg/ug pr
- Akt [2, 9]: 9.3 pg/ug pr
- E-Cadherin [2, 9]: 0.1 pg/ug pr
- GSK3β [2, 9]: 61 pg/ug pr
- Rb [2, 9]: 6.48 pg/ug pr
- SRFP-1 [2, 9]: 0.23 pg/ug pr
- VEGF [2, 9]: 38.3 pg/ug pr
- Wnt3A [2, 9]: 11.8 pg/ug pr
- c-Met [2, 9]: 1.26 ng/ug pr
- dephospho β-catenin [2, 9]: 23.3 Units/ug pr
- phospho-GSK3β [2, 9]: 5.9 Units/ug pr
- phospho-Rb [2, 9]: 0.14 Units/ug pr
- phospho-cMet [2, 9]: 31.5 pg lys cal/ug pr
- phosphor-Akt [2, 9]: 78.5 Units/ug pr
- β-catenin [2, 9]: 82 pg/ug pr

SMILES: CNC(=O)c1cc(Oc2ccc(NC(=O)Nc3ccc(Cl)c(C(F)(F)F)c3)cc2)ccn1 [sorafenib]
- change in E-cadherin levels with treatment ([3]; SKMEL5 not transfected, sorafenib): no additional effect
- change in phospho-Akt levels with treatment ([3]; SKMEL5 tumors, sorafenib): unchanged phospho-Akt levels
- change in total Akt levels with treatment ([3]; SKMEL5 tumors, sorafenib): reduced levels of total Akt
- Akt [3, 10]: 22.3 pg/ug pr
- E-Cadherin [3, 10]: 10.9 pg/ug pr
- GSK3β [3, 10]: 162 pg/ug pr
- Rb [3, 10]: 0.23 pg/ug pr
- SRFP-1 [3, 10]: 0.08 pg/ug pr
- VEGF [3, 10]: 0.8 pg/ug pr
- Wnt3A [3, 10]: 6.2 pg/ug pr
- c-Met [3, 10]: 0.51 ng/ug pr
- dephospho β-catenin [3, 10]: 7.4 Units/ug pr
- phospho-GSK3β [3, 10]: 44.0 Units/ug pr
- phospho-Rb [3, 10]: 0.62 Units/ug pr
- phospho-cMet [3, 10]: 15.7 pg lys cal/ug pr
- β-catenin [3, 10]: 31 pg/ug pr
- change in active (dephospho) β-catenin with treatment ([3]; wt SKMEL5 tumors, sorafenib): decreased
- change in GSK3β phosphorylation with treatment ([3]; wt SKMEL5 tumors, sorafenib, total cellular protein): A reduction in GSK3β phosphorylation was not observed
- Akt [4, 11]: 2.2 pg/ug pr
- GSK3β [4, 11]: 50 pg/ug pr
- Rb [4, 11]: 0.96 pg/ug pr
- SRFP-1 [4, 11]: 0.35 pg/ug pr
- VEGF [4, 11]: 8.5 pg/ug pr
- Wnt3A [4, 11]: 12.0 pg/ug pr
- c-Met [4, 11]: 0.16 ng/ug pr
- dephospho β-catenin [4, 11]: 3.0 Units/ug pr
- phospho-GSK3β [4, 11]: 11.1 Units/ug pr
- phospho-Rb [4, 11]: 0.13 Units/ug pr
- phospho-cMet [4, 11]: 1.8 pg lys cal/ug pr
- phosphor-Akt [4, 11]: 5.9 Units/ug pr
- β-catenin [4, 11]: 16 pg/ug pr
- change in levels of active β-catenin with treatment ([4]; shRNA transfected A375 tumors, sorafenib): reduction in levels of active β-catenin
- Akt [5, 12]: 5.3 pg/ug pr
- GSK3β [5, 12]: 84 pg/ug pr
- Rb [5, 12]: 3.45 pg/ug pr
- SRFP-1 [5, 12]: 1.30 pg/ug pr
- Wnt3A [5, 12]: 23.2 pg/ug pr
- c-Met [5, 12]: 0.23 ng/ug pr
- dephospho β-catenin [5, 12]: 7.3 Units/ug pr
- phospho-Rb [5, 12]: 0.21 Units/ug pr
- phospho-cMet [5, 12]: 3.6 pg lys cal/ug pr
- phosphor-Akt [5, 12]: 8.5 Units/ug pr
- β-catenin [5, 12]: 32 pg/ug pr
- change in total Rb levels with treatment ([5]; control A375, sorafenib, most samples at or below detection limits): increase in its levels
- change in phospho-GSK3β with treatment [5, 13]: no changes
- change in total GSK3β with treatment [5, 13]: no changes
- change in VEGF levels with treatment ([2]; 786-0, treated vs untreated): increased levels of VEGF
- sorafenib-induced apoptosis ([6]; A375 cells, down-modulation of GSK3β with shRNA): increase sorafenib-induced apoptosis
- sorafenib-induced apoptosis ([6]; wild type A375 cells, endogenous active GSK3β): resistance to sorafenib-induced apoptosis
- Akt [7]: 1.6 pg/ug pr
- GSK3β [7]: 24 pg/ug pr
- Rb [7]: 0.27 pg/ug pr
- SRFP-1 [7]: 0.22 pg/ug pr
- VEGF [7]: 2.6 pg/ug pr
- c-Met [7]: 0.10 ng/ug pr
- dephospho β-catenin [7]: 2.9 Units/ug pr
- phospho-GSK3β [7]: 6.6 Units/ug pr
- phospho-Rb [7]: 0.10 Units/ug pr
- phospho-cMet [7]: 1.4 pg lys cal/ug pr
- phosphor-Akt [7]: 6.1 Units/ug pr
- β-catenin [7]: 21 pg/ug pr
- Akt [8, 14]: 32.4 pg/ug pr
- E-Cadherin [8, 14]: 0.0 pg/ug pr
- GSK3β [8, 14]: 88 pg/ug pr
- Rb [8, 14]: 0.63 pg/ug pr
- SRFP-1 [8, 14]: 0.22 pg/ug pr
- VEGF [8, 14]: 7.2 pg/ug pr
- c-Met [8, 14]: 0.59 ng/ug pr
- dephospho β-catenin [8, 14]: 12.6 Units/ug pr
- phospho-GSK3β [8, 14]: 7.9 Units/ug pr
- phospho-Rb [8, 14]: 0.53 Units/ug pr
- phospho-cMet [8, 14]: 7.2 pg lys cal/ug pr
- phosphor-Akt [8, 14]: 14.3 Units/ug pr
- β-catenin [8, 14]: 39 pg/ug pr
- change in E-cadherin levels with treatment ([8]; SKMEL5 transfected (active GSK3β), sorafenib): no additional effect
